# Reference: paper PMC6278313
# Numbering of substitutions follows the chain as printed. Like-named read-outs stand apart in the source and are kept apart here.
# How the values were obtained:
# COX-2 [1] = conditions: cited from earlier work
# COX-2 [2] = biological target: T1, COX-2 (Homo sapiens, UniProt P35354); assay: COX-2 inhibition, human whole blood (Prostaglandin E2 EIA); assay type: cell-based
# T1 construct: endogenous in cells; host or cells: fresh human whole blood
# T1 sequence (P35354 18-604): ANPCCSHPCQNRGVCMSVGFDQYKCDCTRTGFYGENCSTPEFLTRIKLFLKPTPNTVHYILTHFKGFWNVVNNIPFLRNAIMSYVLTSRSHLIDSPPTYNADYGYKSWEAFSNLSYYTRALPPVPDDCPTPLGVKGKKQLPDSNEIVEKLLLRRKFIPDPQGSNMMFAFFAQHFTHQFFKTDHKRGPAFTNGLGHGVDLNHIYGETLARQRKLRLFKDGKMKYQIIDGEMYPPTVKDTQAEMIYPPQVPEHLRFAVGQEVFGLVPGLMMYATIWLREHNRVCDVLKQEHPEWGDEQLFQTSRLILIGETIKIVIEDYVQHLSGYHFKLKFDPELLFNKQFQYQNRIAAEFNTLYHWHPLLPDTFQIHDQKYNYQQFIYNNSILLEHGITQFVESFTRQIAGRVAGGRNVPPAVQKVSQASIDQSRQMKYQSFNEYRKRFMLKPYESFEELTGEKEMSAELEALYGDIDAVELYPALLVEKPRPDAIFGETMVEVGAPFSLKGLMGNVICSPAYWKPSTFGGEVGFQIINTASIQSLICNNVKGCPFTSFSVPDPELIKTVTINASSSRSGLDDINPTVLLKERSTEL
# COX-1 [3] = biological target: T2, COX-1 (Homo sapiens, UniProt P23219); design: endogenous in cells; host or cells: fresh human whole blood; conditions: footnote c; SE <15%; read-out: IC50 COX-1 Human WB (literature); cited from earlier work
# human COX-2 = conditions: cited from earlier work; for Selectivity vs. COX-1: human whole blood, COX-2 over COX-1
# COX-1 [4] = biological target: T3, COX-1 (Macaca mulatta, UniProt F6S984); assay: COX-1 inhibition, monkey whole blood (Thromboxane B2 EIA)
# T3 sequence (F6S984 25-599): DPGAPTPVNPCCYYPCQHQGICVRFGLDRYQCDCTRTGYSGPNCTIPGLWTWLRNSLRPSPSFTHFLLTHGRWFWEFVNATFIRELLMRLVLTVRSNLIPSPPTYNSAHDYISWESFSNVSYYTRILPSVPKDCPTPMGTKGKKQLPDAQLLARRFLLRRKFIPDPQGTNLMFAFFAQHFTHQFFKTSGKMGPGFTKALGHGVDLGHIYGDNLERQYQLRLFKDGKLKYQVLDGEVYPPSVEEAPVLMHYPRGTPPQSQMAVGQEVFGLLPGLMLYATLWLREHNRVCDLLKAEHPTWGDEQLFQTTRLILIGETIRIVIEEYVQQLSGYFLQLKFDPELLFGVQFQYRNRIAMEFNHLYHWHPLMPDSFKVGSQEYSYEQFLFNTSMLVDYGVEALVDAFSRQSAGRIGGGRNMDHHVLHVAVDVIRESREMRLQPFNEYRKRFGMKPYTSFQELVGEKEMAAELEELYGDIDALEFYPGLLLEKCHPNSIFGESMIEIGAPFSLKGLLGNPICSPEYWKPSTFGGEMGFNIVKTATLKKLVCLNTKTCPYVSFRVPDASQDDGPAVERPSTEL
# Procedure: (§1) Thromboxane B2 EIA kit (COX-1) and Prostaglandin E2 EIA Kit (COX-2) were purchased from Cayman Chemicals, USA [45]. Blood from non-treated rhesus monkey and healthy human subjects was used with these ELISA kits to establish the inhibitory potencies (IC50’s) of test compounds for these enzymes [46]. Thromboxane, the product of COX-1, and prostaglandin E2, the product of COX2, were measured using 96-well plates and a UV spectrophotometer. The concentration-inhibition curves were fitted into a 4-parameter non-linear regression model in GraphPad Prism to calculate the IC50 of each test compound.
# COX-1 [5] = biological target: T2, COX-1; assay: COX-1 inhibition, human whole blood (Thromboxane B2 EIA)
# Procedure: as §1
# COX-2 [6] = biological target: T4, COX-2 (Macaca mulatta, UniProt F7BWZ9); assay: COX-2 inhibition, monkey whole blood (Prostaglandin E2 EIA)
# T4 sequence (F7BWZ9 18-604): T1 sequence (P35354 18-604) with H7Y, F49L, A101V, L150F, S163T, N191K, A208D, R211H, T363N, G570R
# Procedure: as §1
# [7] = system: all tested receptors, transporters, and binding sites; assay: NIMH-PDSP radioligand binding screen, whole panel; conditions: 10 μM; except the sites named for 17 and 27
# COX-2 [8] = biological target: COX-2; design: method as in literature cited in the text (18-30); conditions: cited from earlier work
# [9] = Measured logD of radioligands (n-octanol / sodium phosphate buffer); assay type: physicochemical; conditions: n-octanol / sodium phosphate buffer 0.1 M pH 7.4; γ-counter
# Procedure: cLogD (at pH 7.4) values were computed with Pallas for Windows software version 3.8 in default mode (CompuDrug International; Bal Harbor, FL, USA). The logD values of [^11C]17, [^18F]20, and [d2-^18F]27 were measured by a method that we have described previously. The radioactivity contents in the n-octanol and sodium phosphate buffer (0.1 M; pH 7.4) phases were determined with a γ-counter.
# benzodiazepine (BzP) = assay: NIMH-PDSP radioligand binding screen, benzodiazepine site; design: species or system rat; conditions: 10 μM
# [10] = mean ± SD, triplicate unless d n = 1, e n = 2, read-out: IC50 COX-2 Human WB
# [11] = Chart 1, PET in vivo, ref literature cited in the text (18-30)
# [12] = Table 1, human whole blood COX-2, SEM <15%, read-out: HWB IC50
# [13] = footnote c, SE <15%, read-out: IC50 COX-2 Human WB (literature) (converted)
# [14] = Chart 1, ref literature cited in the text (18-30)
# T2 sequence (P23219 24-599): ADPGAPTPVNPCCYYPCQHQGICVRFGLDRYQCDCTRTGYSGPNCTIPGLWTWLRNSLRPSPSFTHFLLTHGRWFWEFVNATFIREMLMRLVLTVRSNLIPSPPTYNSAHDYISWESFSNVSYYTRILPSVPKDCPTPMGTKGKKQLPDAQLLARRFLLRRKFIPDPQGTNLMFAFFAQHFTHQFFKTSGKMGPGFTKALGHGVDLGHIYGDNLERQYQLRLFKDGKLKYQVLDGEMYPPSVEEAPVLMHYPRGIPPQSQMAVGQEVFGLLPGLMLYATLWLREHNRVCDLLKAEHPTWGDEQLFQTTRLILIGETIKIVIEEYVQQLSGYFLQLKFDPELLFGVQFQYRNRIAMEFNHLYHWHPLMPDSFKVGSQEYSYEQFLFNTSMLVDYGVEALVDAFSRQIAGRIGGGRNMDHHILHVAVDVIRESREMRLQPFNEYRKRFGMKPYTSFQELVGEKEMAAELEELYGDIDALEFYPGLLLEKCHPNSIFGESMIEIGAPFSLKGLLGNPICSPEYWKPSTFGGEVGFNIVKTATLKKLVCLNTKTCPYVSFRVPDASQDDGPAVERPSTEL
smiles,measurement,setting,value
"[11CH3]S(=O)(=O)c1ccc(C2=C(c3ccccc3)C(=O)OC2)cc1 [[^11C]4, [^11C]rofecoxib]",brain entry,COX-2 [1]; in vivo,Low brain entry
same,brain entry (SUV),COX-2 [1]; in vivo,0.26 SUV
same,specific signal / specific binding in vivo,COX-2 [1]; in vivo,No specific binding in rat inflammatory models
"COc1cc(NCc2ccccc2)nc(-c2ccc(S(C)(=O)=O)cc2)n1 [Compound 22, N-Benzyl-6-methoxy-2-(4-(methylsulfonyl)phenyl)pyrimidin-4-amine]",IC50,COX-2 [2],7.35 ± 1.35 nM
same,IC50,COX-1 [3],> 100000 nM
same,Selectivity vs. COX-1,human COX-2,">19,646"
same,IC50,human COX-2; read-out: HWB IC50,5.1 nM
same,IC50,human COX-2; read-out: IC50 COX-2 Human WB (literature) (converted),5.1 nM
same,IC50,COX-1 [4],> 1000 nM
same,melting point,,133.4 to 134.6 °C
same,IC50,COX-1 [5],> 1000 nM
same,IC50,COX-2 [6],14.6 ± 10.1 nM
"CS(=O)(=O)c1ccc(-c2nc(Cl)cc(NCc3ccccc3)n2)cc1 [Compound 23, N-Benzyl-6-chloro-2-(4-(methylsulfonyl)phenyl)pyrimidin-4-amine]",IC50,COX-1 [3],> 100000 nM
same,melting point,,130.4 to 131.4 °C
"CN(Cc1cccs1)c1cc(Cl)nc(-c2ccc(S(C)(=O)=O)cc2)n1 [Compound 30, 6-Chloro-N-methyl-2-(4-(methylsulfonyl)phenyl)-N-(thiophen-2-ylmethyl)pyrimidin-4-amine]",IC50,COX-2 [2]; [10],> 1000 nM
same,"inhibition of radioligand binding at all tested receptors, transporters, and binding sites",[7],less than 50%
NS(=O)(=O)c1ccc(-c2c(-c3ccccc3)noc2C[18F])cc1 [[^18F]5],Ki,COX-2 [8],2 nM
same,brain entry,COX-2 [1]; in vivo,Some brain entry
same,defluorination in vivo,COX-2 [1]; in vivo,Rapidly defluorinated
same,specific signal / specific binding in vivo,COX-2 [1]; in vivo,No brain specific signal
[11CH3]Oc1ccc(-c2c(-c3ccc(S(N)(=O)=O)cc3)[nH]c3ccccc23)cc1 [[^11C]7],brain entry,COX-2 [1]; [11],Low rat brain uptake
"CCSc1cc(NCc2cccs2)nc(-c2ccc(S(C)(=O)=O)cc2)n1 [Compound 19, 6-Thioethyl-2-(4-(methylsulfonyl)phenyl)-N-(thiophen-2-ylmethyl)pyrimidin-4-amine]",IC50,COX-2 [2]; [10],3.52 ± 0.43 nM
same,IC50,COX-1 [3],> 10000 nM
same,IC50,human COX-2; [12],1.2 nM
same,IC50,human COX-2; [13],1.2 nM
same,Selectivity vs. COX-1,human COX-2,>8403
same,IC50,COX-1 [4],> 1000 nM
same,melting point,,160 to 162.1 °C
same,IC50,COX-1 [5],> 1000 nM
same,IC50,COX-2 [6],52.3 ± 0.01 nM
"CS(=O)(=O)c1ccc(-c2nc(NCc3cccs3)cc(OCCF)n2)cc1 [Compound 20, 6-(2-Fluoroethoxy)-2-(4-(methylsulfonyl)phenyl)-N-(thiophen-2-ylmethyl)pyrimidin-4-amine]",IC50,COX-2 [2]; [10],1.9 nM
same,melting point,,147.7 to 149.2 °C
same,IC50,COX-2 [6],1.28 nM
"CS(=O)(=O)c1ccc(-c2nc(O)cc(NCc3cccs3)n2)cc1 [Compound 26, 2-(4-(Methylsulfonyl)phenyl)-6-(thiophen-2-yl-methylamino)pyrimidin-4-ol]",IC50,COX-1 [3],> 100000 nM
same,inhibitory potency for COX-2,human COX-2,low inhibitory potency
same,melting point,,261.7 to 263.2 °C
[11CH3]Oc1ccc(-c2cncn2-c2ccc(S(N)(=O)=O)cc2)cc1 [[^11C]6],Ki,COX-2 [8]; [14],5 nM
same,brain entry,COX-2 [1]; [11],Low brain uptake
[11CH3]Oc1ccc(-c2cc(C(F)(F)F)nn2-c2ccc(S(N)(=O)=O)cc2)cc1 [[^11C]2],brain entry,COX-2 [1]; [11],Low brain penetration
"CCOc1cc(NCc2cccs2)nc(-c2ccc(S(C)(=O)=O)cc2)n1 [Compound 18, 6-Ethoxy-2-(4-(methylsulfonyl)phenyl)-N-(thiophen-2-ylmethyl)pyrimidin-4-amine]",melting point,,169.2 to 170.4 °C
same,"inhibition of radioligand binding at all tested receptors, transporters, and binding sites",[7],less than 50%
same,IC50,COX-1 [5],> 10000 nM
"CS(=O)(=O)c1ccc(-c2nc(F)cc(NCc3cccs3)n2)cc1 [Compound 29, 6-Fluoro-2-(4-(methylsulfonyl)phenyl)-N-(thiophen-2-ylmethyl)pyrimidin-4-amine]",IC50,COX-2 [2]; [10],2.5 nM
same,melting point,,130.4 to 131.4 °C
CS(=O)(=O)c1ccc(-c2nc(NCc3cccs3)cc(O[11CH3])n2)cc1 [[^11C]17],logD,[9],3.74 ± 0.02
Cc1ccc(-c2cc(C(F)(F)F)nn2-c2ccc(S(=O)(=O)Nc3cccc([18F])c3)cc2)cc1 [[^18F]3],Ki,COX-2 [8]; [14],250 nM
"CS(=O)(=O)c1ccc(-c2nc(O)cc(NCc3ccccc3)n2)cc1 [Compound 24, 6-(Benzylamino)-2-(4-(methylsulfonyl)phenyl)pyrimidin-4-ol]",IC50,COX-1 [3],> 100000 nM
same,inhibitory potency for COX-2,human COX-2,low inhibitory potency
same,IC50,COX-1 [4],> 1000 nM
same,melting point,,287.9 to 289.2 °C
same,IC50,COX-1 [5],> 1000 nM
same,IC50,COX-2 [6],> 1000 nM
[2H]C([2H])([18F])Oc1cc(NCc2cccs2)nc(-c2ccc(S(C)(=O)=O)cc2)n1 [[d2-^18F]27],logD,[9],3.7 ± 0.12
CS(=O)(=O)c1ccc(-c2nc(NCc3cccs3)cc(OCC[18F])n2)cc1 [[^18F]20],logD,[9],2.94 ± 0.32
"CS(=O)(=O)c1ccc(-c2nc(Cl)cc(NCc3cccs3)n2)cc1 [Compound 25, 6-Chloro-2-(4-(methylsulfonyl)phenyl)-N-(thiophen-2-ylmethyl)pyrimidin-4-amine]",IC50,COX-1 [3],> 100000 nM
same,IC50,human COX-2; [12],1.2 nM
same,IC50,human COX-2; [13],1.2 nM
same,melting point,,170 to 171.2 °C
same,IC50,COX-1 [5],> 10000 nM
"CS(=O)(=O)c1ccc(-c2nc(NCc3cccs3)cc(OCF)n2)cc1 [Compound 27, 6-(2-Fluoromethoxy)-2-(4-(methylsulfonyl)phenyl)-N-(thiophen-2-yl-methyl)pyrimidin-4-amine]",IC50,COX-2 [2]; [10],2.26 ± 0.63 nM
same,IC50,COX-1 [4],> 1000 nM
same,"inhibition of radioligand binding at all tested receptors, transporters, and binding sites",[7],less than 50%
same,IC50,COX-1 [5],> 1000 nM
same,inhibition of radioligand binding at benzodiazepine (BzP),benzodiazepine (BzP),50.8%
same,IC50,COX-2 [6],2.26 ± 0.45 nM
"CSc1cc(NCc2cccs2)nc(-c2ccc(S(C)(=O)=O)cc2)n1 [Compound 21, 6-Thiomethyl-2-(4-(methylsulfonyl)phenyl)-N-(thiophen-2-ylmethyl)pyrimidin-4-amine]",IC50,COX-2 [2]; [10],2.65 ± 0.45 nM
same,IC50,COX-1 [4],> 1000 nM
same,melting point,,159.1 to 160.4 °C
same,IC50,COX-1 [5],> 1000 nM
same,IC50,COX-2 [6],4.83 ± 2.31 nM
